We go through 2 molecules from patent publication US12162811B2, “F-18 labeled chiral pure derivative of hydroxyfuran, preparation method and use thereof” (The First Affiliated Hospital of Sun Yat-sen University, priority 2022, dated 2024).

Entries after “also recorded” stand apart in the source; their conditions may differ.

A short description of data set [1]: biodistribution in human body (ROI time-activity profiles of source organs). It counts as in vivo. The source says: For the 6 sets of images obtained by Example 5, the ROI was depicted in the whole body images at the first time point and replicated to subsequent time point scans so as to determine the cumulative radioactivity in each source organ. The genital volume was manually adjusted if necessary. Major source organs include brain, thyroid, lung, heart wall, liver, gallbladder, stomach, adrenals, kidneys, pancreas, spleen, uterus (female only), testes (male only), and bone marrow. The biodistribution analysis included muscle and the absorbed dose analysis included bladder. Spinal ROIs were plotted as an alternative to the red bone marrow. Time-activity profiles were derived from each ROI, and cumulative radioactivity for each source organ was expressed as a percentage of the injected dose (% ID).

The subject of another data set is tumor lesions. Put plainly: whole-body dynamic PET/CT imaging of tumor patients. It counts as in vivo, human. As to the method: Six patients with different tumors fasted and urinated for at least 6 hours prior to receiving PET/CT scanning, approximately 5, 13, 30, 45 and 60 minutes after injection of (4R, 5R)[^18F]FAA (mean 448±113 MBq), the five consecutive whole-body dynamic PET/CT scanning was conducted for each participant using a uMI 780 scanner (United Imaging Healthcare) or Discovery MI scanner (GE Healthcore). The CT acquisition parameters of the uMI 780 scanner were 120 kV, smart 100-200 mAs, detector coverage of 40 mm, spacing of 0.9875, slice thickness of 1.0 mm, and rotation time of 0.5 s. The PET emission scan time was 1.5 min per bed with 6 beds covering the scanning area. Finally, the PET images were reconstructed by the regularized ordered subset expectation maximization algorithm (R-OSEM, UNITED IMAGING) with attenuation normalization using ACCT images. The CT acquisition parameters of the Discovery MI scanner were 120 kV, smart 120-180 mA, detector coverage of 40 mm, slice thickness of 0.625 mm, pitch to speed of 0.984:1, 39.37 and rotation time of 0.6 s. The PET emission scanning time was 1 min per bed with 6 to 8 beds covering the scanning area. Finally, the PET images were reconstructed by a Bayesian penalized likelihood (BPL) reconstruction algorithm (Q.clear, GE Healthcare) and attenuation nominalization was performed using ACCT images. Urine samples were collected after the last PET/CT scan and total radioactivity of the urine was assessed.

The nature of data set [2]: radiometrics: residence times and radiation absorbed dose (MIRD). Format: in vivo, human. As to the method: For the six sets of data obtained through Example 6, the residence times were calculated as the area under each time-activity curve by curve fitting with either a mono-or bi-exponential function model. The residence times of the bladder were generated by the integration of the time-activity curve from zero time to the last emission scan time plus the integration of the function from the last scan time to infinity (physical decay only). These residence times are then used for radiation absorbed dose calculations. The radiation absorbed dose was calculated for each subject using the Medical Internal Radiation Dose (MIRD) algorithm. The absorbed dose in the target area specified by MIRD was calculated according to the standardized Cristy Eckerman 70 kg adult male model, and the effective dose was assessed according to the tissue weighting factors in the publication of International Commission on Radiological Protection.

For a further data set, the system named is HCT8 xenograft tumor. Put plainly: micro-PET/CT imaging of tumor-bearing nude mice after intratumoral or tail vein injection. Format: in vivo, nude mouse. The settings on record: for SUVmax in the tumor: 5 min after injection; for SUVmax of the tumors: 1 h. How it is done:
A nude mouse model with HCT8 xenograft tumor was established, and dynamic imaging was performed after intratumoral injection upon anesthesia of the tumor-bearing mice: 0.1 mL (about 100 μCi) of the solution prepared automatically with saline dilution with or without supersaturated sodium ascorbate was taken from a 1 mL syringe needle, and the solution was injected intratumorally into the nude mice model with an automatic syringe pump at 0.1 mL/min, and a dynamic 1-h microPET/CT imaging was performed. Delayed imaging was performed: statically imaged 2 h after injection.
Static micro-PET/CT imaging was performed 1 hour after tail vein injection in the anesthetized tumor-bearing mice.

The conditions of data set [3]: comparison PET tracer; cited from earlier work.
Setting [4] is: intratumoral injection, with supersaturated sodium ascorbate.
The mark [5] stands for this setting: intratumoral injection, without supersaturated sodium ascorbate.

Take `O=C1O[C@H]([C@@H](O)C[18F])C(O)=C1O` [(4R, 5R)[^18F]FAA]: the “uptake in liver, adrenal glands, choroid plexus, pituitary gland and thyroid (exception of the kidney)” value in data set [1] (1 h after injection) is “high uptake”. In data set [1] (during the imaging phase), the “uptake in heart, muscle and brain” value is listed as “low”. Moreover, the “uptake in liver, adrenal glands, kidneys, choroid plexus, pituitary gland and thyroid” value in data set [1] (earliest imaging time point, most subjects) was “high uptake”. In addition, the route of excretion entry in data set [1] (human) is “excreted mainly through the kidneys to the bladder”. Besides, the “uptake in spleen, intestine, salivary glands and bone marrow” value in data set [1] (slow clearance over time) is “moderate uptake”. Besides, in the data set with tumor lesions (6 patients), the metastases detected is given as 168. The primary lesions detected in the data set with tumor lesions (6 patients) is listed as 2. The “mean SUVmax in all tumor lesions” value in the data set with tumor lesions (6 patients, all tumor lesions) came to 6.89±3.82. Moreover, the “median SUVmax in all tumor lesions” value in the data set with tumor lesions (6 patients, all tumor lesions) came out at 6.07. For the same molecule, in the data set with tumor lesions (6 patients, all tumor lesions), the “range of SUVmax in all tumor lesions” value is recorded as 1.62-22.85. The tumor radioactivity uptake entry in the data set on tumor lesions (kidney cancer and intestinal cancer patients) is “average tumor radioactivity uptake”. Further, the “uptake in primary and metastatic tumor foci” value in the data set on tumor lesions (thyroid cancer and lung cancer) was “very high uptake”. The safety in humans result in the data set on tumor lesions (tumor patients) is “safe for use in humans”. The uptake in tumors result in the data set on tumor lesions (tumor patients) is reported as “high uptake in tumors”; with HCT8 xenograft tumor (tumor-bearing mice), “certain tumor uptake; also recorded: high uptake in tumors”. Also, the “mean effective dose (ED)” value in data set [2] (ICRP tissue weighting factors) is 1.68±0.36E-02 mSv/MBq. Also, the absorbed dose in data set [2] (adrenal gland) worked out at 1.89±0.61E-02 mGy/MBq; in data set [2] (brain), 4.88±1.21E-03 mGy/MBq; in data set [2] (kidney), 1.87±0.38E-02 mGy/MBq; in data set [2] (liver) it was 3.42±0.75E-02 mGy/MBq; in data set [2] (spleen) it was 2.95±1.70E-02 mGy/MBq. Also, the residence time in data set [2] (bladder wall) is 1.16±0.54E-03 hours; in data set [2] (kidney), 1.77±0.53 E-03 hours; in data set [2] (liver) it was 22.5±4.94 E-02 hours; in data set [2] (lung), 3.18±0.49 E-02 hours; in data set [2] (spleen) it was 2.19±1.59 E-02 hours; in data set [2] (thymus), 2.74±1.37E-05 h. For the same molecule, in data set [2] (whole body), the “mean systemic absorbed dose” value came to 6.54±1.58E-03 mSv/MBq. Further, in the data set on HCT8 xenograft tumor (intratumoral injection, dynamic imaging), the “effect of added supersaturated sodium ascorbate on metabolism of the tracer in the liver” value is “significantly inhibited”. Also, the “SUVmax in the tumor” value is recorded as 165 % ID/g in the data set with HCT8 xenograft tumor (setting [4]) and 88 % ID/g with HCT8 xenograft tumor (setting [5]). For the same molecule, the “SUVmax of the tumors” value with HCT8 xenograft tumor (setting [4]) is 45 % ID/g; with HCT8 xenograft tumor (setting [5]), 34 % ID/g; with HCT8 xenograft tumor (tail vein injection) it was 6.3 % ID/g. In the data set with HCT8 xenograft tumor (intratumoral injection, without supersaturated sodium ascorbate, 2 h after injection), the “SUVmax of tumors, delayed imaging” value stood at 35 % ID/g.
In the case of [^18F]FDG, the “systemic absorbed effective dose” value in data set [3] is 1.90±0.36 E-02 mSv/MBq.
